Columns and labels:
waterplantain = assay: Test F flood (paddy) test; assay type: in vivo, Alisma plantago-aquatica; settings: 21 d, scale 0-100
Source text: (§1) Three plastic pots (ca. 16-cm diameter) per rate were partially filled with sterilized Tama silt loam soil comprising a 35:50:15 ratio of sand, silt and clay and 2.6% organic matter. Separate plantings for each of the three pots were as follows. Seeds from the U.S. of monochoria (Monochoria vaginalis), sedge, umbrella (small-flower umbrella sedge, Cyperus difformis), bulrush, […] bulrush, Scirpus juncoides), and […] (purple […] coccinea), were planted into one 16-cm pot for each rate. Seeds from the U.S. of flatsedge, rice (rice flatsedge, Cyperus iria), sprangletop, Brdd. (bearded sprangletop, Leptochloa fascicularis), one stand of 9 or 10 water seeded rice seedlings (Rice, W.S. Jap, Oryza sativa cv. 'Japonica-[…]' or Rice, W.S. Ind, 'Indica'), and two stands of 3 or 4 seedlings of rice, transplanted (transplanted rice, Oryza sativa cv. 'Japonica-[…]') were planted into one 16-cm pot for each rate. Seeds from the U.S. of barnyardgrass (Echinochloa crus-galli), […] (common […], Alisma plantago-aquatica), and watergrass, late (late watergrass, Echinochloa oryzicola) were planted into one 16-cm pot for each rate. Plantings were sequential so that crop and weed species were at the 2.0 to 2.5-leaf stage at time of treatment. Potted plants were grown in a greenhouse with day/night temperature settings of 30/27° C., and supplemental balanced lighting was provided to maintain a 16-h photoperiod. Test pots were maintained in the greenhouse until test completion. At time of treatment, test pots were flooded to 3 cm above the soil surface, treated by application of test compounds directly to the paddy water, and then maintained at that water depth for the duration of the test. Effects of treatments on rice and weeds were visually evaluated by comparison to untreated controls after 21 d. Plant response ratings, summarized in Table F, are based on a scale of 0 to 100 where 0 is no effect and 100 is complete control. A dash (-) response means no test result.

Rice, W.S. Jap = assay: Test F flood (paddy) test; assay type: in vivo, Oryza sativa cv. Japonica—M202; settings: 21 d, scale 0-100
Procedure, shortened: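 Greenhouse paddy, 30/27 °C day/night, 16-h light; sterilized Tama silt loam, 2.6% OM. Plants at 2.0–2.5 leaves; flood 3 cm, compound added directly to water. Visual score at 21 d, 0 = no effect, 100 = complete control, relative to untreated.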

deadnettle = assay: Test C postemergence herbicide test; assay type: in vivo, Lamium amplexicaule
Source text: At the same time, plants selected from these crop and weed species and also barley (winter barley, Hordeum vulgare), […]), chickweed (common chickweed, Stellaria media), deadnettle (henbit deadnettle, Lamium amplexicaule), and canarygrass (littleseed canarygrass, Phalaris minor) were planted in pots containing Redi-Earth® planting medium (Scotts Company, 14111 Scottslawn Road, Marysville, Ohio 43041) comprising spaghnum peat moss, vermiculite, wetting agent and starter nutrients and treated with postemergence applications of test chemicals formulated in the same manner. Plants ranged in height from 2 to 18 cm (1- to 4-leaf stage) for postemergence treatments. Treated plants and controls were maintained in a greenhouse for 13 to 15 days, after which time all species were compared to controls and visually evaluated. Plant response ratings, summarized in Table C, are based on a scale of 0 to 100 where 0 is no effect and 100 is complete control. A dash (-) response means no test result.

waterhemp (AMATA) = assay: Test H preemergence mixture test (Colby); assay type: in vivo, Amaranthus rudis; settings: for Plant response rating, Obsd., AMATA: 21 d after treatment, scale 0 to 100; for AMATA Obsd.: applied alone, 21 d, mean of three replicates, scale 0-100
Source text: (§2) Colby's Equation was used to determine the herbicidal effects expected from the mixtures. Colby's Equation (Colby, S. R. “Calculating Synergistic and Antagonistic Responses of Herbicide Combinations,” Weeds, 15(1), pp 20-22 (1967)) calculates the expected additive effect of herbicidal mixtures and for two active ingredients is of the form: Pa+b=Pa+Pb−(PaPb/100)
(§3) where • Pa+b is the percentage effect of the mixture expected from additive contribution of the individual components: • Pa is the observed percentage effect of the first active ingredient at the same use rate as in the mixture, and • Pb is the observed percentage effect of the second active ingredient at the same use rate as in the mixture. In the following Tables, rates are shown in grams of active ingredient per hectare (g a.i./ha); “Obsd.” is the observed effect. “Exp.” is the expected effect calculated from Colby's Equation.
(§4) This test evaluated the effect of mixtures of compound 80 with several commercial herbicides on four plant species. Seeds of plant species selected from corn (ZEAMD, Zea mays), soybean (GLXMA, Glycine max), waterhemp (common waterhemp, AMATA, Amaranthus rudis), and giant foxtail (SETFA, Setaria faberii) were planted into a silt loam soil and treated preemergence with test chemicals formulated in a non-phytotoxic solvent mixture which included a surfactant and applied using a volume of 281 L/ha. Each treatment was replicated three times. Treated plants and controls were maintained in a greenhouse using supplemental lighting to maintain a photoperiod of about 16 h; daytime and nighttime temperatures were about 24-30° C. and 19-21° C., respectively. Nutrients were applied using a balanced fertilizer applied through the watering system. At 21 d after treatment, all species were compared to controls and visually evaluated. Plant response ratings were calculated as the means of the three replicates, are summarized in Tables H1 through H5, and are based on a scale of 0 to 100 where 0 is no effect and 100 is complete control. A dash (-) response means no test result. The Expected (Exp.) results were calculated using Colby's Equation as described for Test G above.

giant foxtail (SETFA) = assay: Test H preemergence mixture test (Colby); assay type: in vivo, Setaria faberii; settings: for Plant response rating, Obsd., SETFA: 21 d after treatment, scale 0 to 100; for SETFA Obsd.: applied alone, 21 d, mean of three replicates, scale 0-100
soybean (GLXMA) = assay: Test H preemergence mixture test (Colby); assay type: in vivo, Glycine max; settings: for Plant response rating, Obsd., GLXMA: 21 d after treatment, scale 0 to 100; for GLXMA Obsd.: applied alone, 21 d, mean of three replicates, scale 0-100
Source text: as §2, §3, §4

Rice, Water Seeded = assay: Test F flood (paddy) test; assay type: in vivo, Oryza sativa; settings: 62 g ai/ha, 21 d, scale 0-100
Source text: as §1, with “Potted plants were grown in a greenhouse with day/night temperature settings of 30/27° C., and supplemental balanced lighting was provided to maintain a 16-h photoperiod. Test pots were maintained in the greenhouse until test completion. At time of treatment, test pots were flooded to 3 cm above the soil surface, treated by application of test compounds directly to the paddy water, and then maintained at that water depth for the duration of the test.” left out, “Plant response ratings, summarized in Table F, are based on a scale of 0 to 100 where 0 is no effect and 100 is complete control. A dash (-) response means no test result.” left out

SMILES: O=C1NCCC1C(=O)N(c1ccc(F)c(F)c1)c1ccccc1F (stereo not drawn) [Compound 5, N-(3,4-difluorophenyl)-N-(2-fluorophenyl)-2-oxo-3-pyrrolidinecarboxamide]
- Plant response rating, Waterplantain (waterplantain; 125 g ai/ha): 55
- Plant response rating, Waterplantain (waterplantain; 250 g ai/ha): 70
- Plant response rating, Waterplantain (waterplantain; 500 g ai/ha): 80
- Plant response rating, Waterplantain (waterplantain; 1000 g ai/ha): 85
- Plant response rating, Waterplantain (waterplantain; 2000 g ai/ha): 90

SMILES: O=C1NCC(c2ccc(F)c(F)c2)C1C(=O)Nc1cccc(F)c1F (stereo not drawn) [Compound 17, N-(2,3-difluorophenyl)-4-(3,4-difluorophenyl)-2-oxo-3-pyrrolidinecarboxamide]
- Plant response rating, Rice, W.S. Jap (Rice, W.S. Jap; 125 g ai/ha): 0
- Plant response rating, Rice, W.S. Jap (Rice, W.S. Jap; 250 g ai/ha): 15
- Plant response rating, Rice, W.S. Jap (Rice, W.S. Jap; 500 g ai/ha): 15
- Plant response rating, Rice, W.S. Jap (Rice, W.S. Jap; 1000 g ai/ha): 60
- Plant response rating, Rice, W.S. Jap (Rice, W.S. Jap; 2000 g ai/ha): 85
- Plant response rating, Deadnettle (deadnettle; 31 g ai/ha, scale 0 (no effect) to 100 (complete control)): 0
- Plant response rating, Deadnettle (deadnettle; 62 g ai/ha, scale 0 to 100 (0 no effect, 100 complete control)): 0
- Plant response rating, Deadnettle (deadnettle; 125 g ai/ha, scale 0 to 100 (0 no effect, 100 complete control)): 0
- Plant response rating, Deadnettle (deadnettle; 250 g ai/ha, scale 0 to 100 (0 no effect, 100 complete control)): 0

SMILES: O=C1NCC(c2ccc(C(F)(F)F)cc2)C1C(=O)Nc1cccc(F)c1F (stereo not drawn) [Compound 80, N-(2,3-difluorophenyl)-2-oxo-4-[4-(trifluoromethyl)phenyl]-3-pyrrolidinecarboxamide]
- Plant response rating, Obsd., AMATA (waterhemp (AMATA); Cmpd 80 alone 62 g a.i./ha): 0
- Plant response rating, Obsd., AMATA (waterhemp (AMATA); Cmpd 80 alone 125 g a.i./ha): 33
- AMATA Obsd. (waterhemp (AMATA); 62 g a.i./ha): 0
- AMATA Obsd. (waterhemp (AMATA); 125 g a.i./ha): 33
- Plant response rating, Obsd., SETFA (giant foxtail (SETFA); Cmpd 80 alone 62 g a.i./ha): 52
- Plant response rating, Obsd., SETFA (giant foxtail (SETFA); Cmpd 80 alone 125 g a.i./ha): 78
- SETFA Obsd. (giant foxtail (SETFA); 62 g a.i./ha): 52
- SETFA Obsd. (giant foxtail (SETFA); 125 g a.i./ha): 78
- Plant response rating, Obsd., GLXMA (soybean (GLXMA); Cmpd 80 alone 62 g a.i./ha): 12
- Plant response rating, Obsd., GLXMA (soybean (GLXMA); Cmpd 80 alone 125 g a.i./ha): 0
- GLXMA Obsd. (soybean (GLXMA); 62 g a.i./ha): 12
- GLXMA Obsd. (soybean (GLXMA); 125 g a.i./ha): 0

SMILES: CN1CC(c2ccc(F)c(F)c2)C(C(=O)Nc2cccc(F)c2F)C1=O (stereo not drawn) [Compound 303]
- Plant response rating, Rice, Water Seeded (Rice, Water Seeded): 0
